Results reported in publication PMC4744035, “In Vivo, In Vitro, and In Silico Characterization of Peptoids as Antimicrobial Agents” (PLoS ONE, 2016).
Values after ≈ are worked out from the molar mass of the structure shown. Like-named read-outs stand apart in the source and are kept apart here. Square brackets hold non-standard residues; d marks the D form. Peptide text beside a SMILES is read from it. Nspe = C[C@H](NCC(=O)O)c1ccccc1; Nphe = O=C(O)CNCc1ccccc1; Nlys = NCCCCNCC(=O)O

How the values were obtained:
[1] = test system: P. aeruginosa LES400 (MDR); assay: microbe, parasite or virus in culture
Procedure: (§1) The MICs of test agents were measured using a modified broth micro-dilution method in Difco Mueller Hinton medium, on a panel of bacterial pathogens that were both susceptible and resistant to common antibiotics (S1 File). Briefly, serial dilutions were performed in 0.01% acetic acid containing 0.2% bovine serum albumin at 10-fold the desired final concentration. Ten μL of the 10-fold concentrated test reagents were added to each well of a 96-well polypropylene microtitre plate containing 90 μL of Mueller Hinton media per well. Bacteria were added to the plate from an overnight culture at a final concentration of 2–7 x 10^5 CFU/mL and incubated overnight at 37°C. The MIC is defined as the concentration at which no growth was observed.
(§2) Screening of peptoid antimicrobial activity against a panel of multidrug resistant superbugs was done according to the protocol described in the manuscript. The bacterial strains used in this panel included; P. aeruginosa PAO1 strain H103 [1], P. maltophilia ATCC#13637, S. aureus ATCC#25923 [1], E. faecalis ATCC#29212 [2], and E. cloacae 218R, constitutively expressing Class C chromosomal β-lactamase, were from the Hancock lab strains collection. An MRSA clinical isolate was kindly provided by Anthony Chow (Vancouver General Hospital, Vancouver, Canada). Two Klebsiella pneumoniae and two E. coli clinical isolates expressing extended spectrum β-lactamases (ESBL) were kindly provided by George Zhanel (Health Sciences Centre, Winnipeg, Canada). Vancomycin-resistant clinical isolates of Enterococcus faecalis and E. faecium were obtained from Ana M. Paccagnella (BC Centre for Disease Control, Vancouver, Canada). Three clinical isolates (#9, #198 and #213) of multi-drug resistant P. aeruginosa, were kindly provided by Carlos Kiffer (University of São Paulo, Brazil). […] Three P. aeruginosa clinical isolates of the Liverpool epidemic strain (LES) (H1027, H1030 and LES400) were all kindly provided by Craig Winstanley (University of Liverpool, UK). […] All tested bacterial strains were categorized as biohazard level 2 pathogens.

S. aureus C623 (MRSA) = assay: microbe, parasite or virus in culture
Procedure: as §1, §2

[2] = test system: P. aeruginosa H103 (wild type); assay: microbe, parasite or virus in culture
Procedure: as §1, §2

P. maltophilia ATCC13637 = assay: microbe, parasite or virus in culture; details: ATCC13637
Procedure: as §1, §2

[3] = test system: K. pneumonia 61962 (ESBL); assay: microbe, parasite or virus in culture
Procedure: as §1, §2

E. coli 63103 (ESBL) = assay: microbe, parasite or virus in culture
Procedure: as §1, §2

E. faecalis ATCC29212 = assay: microbe, parasite or virus in culture; details: ATCC29212
Procedure: as §1, §2

E. coli 64771 (ESBL) = assay: microbe, parasite or virus in culture
Procedure: as §1, §2

E. faecium mic80 (VRE) = assay: microbe, parasite or virus in culture
Procedure: as §1, §2

E. faecalis W61950 (VRE) = assay: microbe, parasite or virus in culture
Procedure: as §1, §2

E. faecalis F43559 (VRE) = assay: microbe, parasite or virus in culture
Procedure: as §1, §2

S. aureus ATCC25923 = assay: microbe, parasite or virus in culture; details: ATCC25923
Procedure: as §1, §2

P. aeruginosa 213 (MDR) = assay: microbe, parasite or virus in culture
Procedure: as §1, §2

[4] = test system: K. pneumonia 63575 (ESBL); assay: microbe, parasite or virus in culture
Procedure: as §1, §2

E. faecium T62764 (VRE) = assay: microbe, parasite or virus in culture
Procedure: as §1, §2

P. aeruginosa 9 (MDR) = assay: microbe, parasite or virus in culture
Procedure: as §1, §2

[5] = test system: P. aeruginosa H1027 (MDR); assay: microbe, parasite or virus in culture
Procedure: as §1, §2

P. aeruginosa 198 (MDR) = assay: microbe, parasite or virus in culture
Procedure: as §1, §2

[6] = test system: E. cloacae 218R Class C β-lactamase; assay: microbe, parasite or virus in culture
Procedure: as §1, §2

E. coli ATCC 35218 = assay type: cell-based
Procedure: MICs against B. subtilis and E. coli screening bacterial strains were determined using serial dilution in 96-well microtiter plates in accordance with CLSI M7-A6 protocols. Briefly, peptoid solution in cation-adjusted Mueller-Hinton broth was prepared by 2:1 serial dilution with a total volume of 50 µL per well. In experimental wells, 50 µL of bacterial inoculums (1 x 10^6 CFU/mL) were added to the peptoid solutions. Positive controls consisted of 50 µL inoculums added to 50 µL cation-adjusted Mueller-Hinton broth containing no peptoid, while negative controls contained only cation-adjusted Mueller-Hinton broth. […] Experiments were reproducible among three independent replicates, each consisting of two parallel trials.

[7] = test system: P. aeruginosa H1030 (MDR); assay: microbe, parasite or virus in culture; details: P. aeruginosa H1030 (MDR)
Procedure: as §1, §2

erythrocytes = assay: Hemolytic activity (HD10/HD50); assay type: cell-based
Excerpt: Table 1 Characteristics of antimicrobial peptoids, screened for activity against B. subtilis and E. coli bacterial strains. | column: HD10 / HD50

Work on `CC(C)(O/N=C(\C(=O)N[C@@H]1C(=O)N2C(C(=O)[O-])=C(C[n+]3ccccc3)CS[C@H]12)c1csc(N)n1)C(=O)O` [Ceftazidime, reference compound] yielded an MIC ([1]; Pseudomonas aeruginosa) of 32 µg/mL (≈ 58.5 µM), an MIC (S. aureus C623 (MRSA); Staphylococcus aureus, MRSA) of 64 µg/mL (≈ 117 µM) and an MIC ([2]; Pseudomonas aeruginosa) of 2 µg/mL (≈ 3.66 µM). The MIC (P. maltophilia ATCC13637; Stenotrophomonas maltophilia) was 0.3 µg/mL (≈ 0.549 µM), the MIC ([3]; Klebsiella pneumoniae) was greater than 128 µg/mL and the MIC (E. coli 63103 (ESBL); Escherichia coli) was 128 µg/mL (≈ 234 µM). For the same compound, the MIC (E. faecalis ATCC29212; Enterococcus faecalis) was 128 µg/mL (≈ 234 µM), the MIC (E. coli 64771 (ESBL); Escherichia coli) was greater than 128 µg/mL and the MIC (E. faecium mic80 (VRE); Enterococcus faecium, VRE) was greater than 128 µg/mL. For the same compound, the MIC (E. faecalis W61950 (VRE); Enterococcus faecalis, VRE) was greater than 128 µg/mL, the MIC (E. faecalis F43559 (VRE); Enterococcus faecalis, VRE) was greater than 128 µg/mL and the MIC (S. aureus ATCC25923; Staphylococcus aureus) was 16 µg/mL (≈ 29.3 µM). For the same compound, the MIC (P. aeruginosa 213 (MDR); Pseudomonas aeruginosa) was greater than 128 µg/mL, the MIC ([4]; Klebsiella pneumoniae) was greater than 128 µg/mL and the MIC (E. faecium T62764 (VRE); Enterococcus faecium, VRE) was greater than 128 µg/mL. For the same compound, the MIC (P. aeruginosa 9 (MDR); Pseudomonas aeruginosa) was greater than 128 µg/mL, the MIC ([5]; Pseudomonas aeruginosa) was 128 µg/mL (≈ 234 µM) and the MIC (P. aeruginosa 198 (MDR); Pseudomonas aeruginosa) was 128 µg/mL (≈ 234 µM). The MIC ([6]; Enterobacter cloacae) was 32 µg/mL (≈ 58.5 µM).

With `C[C@@H](c1ccccc1)N(CC(N)=O)C(=O)CN(Cc1ccccc1)C(=O)CN(CCCCN)C(=O)CN(C(=O)CN(Cc1ccccc1)C(=O)CN(CCCCN)C(=O)CN(C(=O)CN(Cc1ccccc1)C(=O)CN(CCCCN)C(=O)CN(C(=O)CN(Cc1ccccc1)C(=O)CNCCCCN)[C@@H](C)c1ccccc1)[C@@H](C)c1ccccc1)[C@@H](C)c1ccccc1` [1-Npm2,5,8,11, H-(NLys-Npm-Nspe)4-NH2] (H-[Nlys][Nphe][Nspe][Nlys][Nphe][Nspe][Nlys][Nphe][Nspe][Nlys][Nphe][Nspe]-NH2) the “MIC E. coli” value (E. coli ATCC 35218) was 6.3 µM (≈ 11.1 µg/mL), the MIC ([1]; LES400 (MDR)) was 8 µg/mL (≈ 4.54 µM) and the MIC (S. aureus C623 (MRSA); C623) was 8 µg/mL (≈ 4.54 µM). It also gave an MIC ([2]; H103 (wild type)) of 4 µg/mL (≈ 2.27 µM), an MIC (P. maltophilia ATCC13637) of 2 µg/mL (≈ 1.13 µM) and an MIC [3] of 32 µg/mL (≈ 18.1 µM). The MIC (E. coli 63103 (ESBL); 63103 (ESBL)) was 8 µg/mL (≈ 4.54 µM), the MIC (E. faecalis ATCC29212) was 4 µg/mL (≈ 2.27 µM) and the MIC (E. coli 64771 (ESBL); 64771 (ESBL)) was 4 µg/mL (≈ 2.27 µM). The MIC (E. faecium mic80 (VRE); mic80 (VRE)) was 4 µg/mL (≈ 2.27 µM), the MIC (E. faecalis W61950 (VRE); W61950 (VRE)) was 16 µg/mL (≈ 9.07 µM) and the MIC (E. faecalis F43559 (VRE); F43559 (VRE)) was 4 µg/mL (≈ 2.27 µM). The MIC (S. aureus ATCC25923) was 4 µg/mL (≈ 2.27 µM), the MIC (P. aeruginosa 213 (MDR); 213 (MDR)) was 4 µg/mL (≈ 2.27 µM) and the MIC [4] was 16 µg/mL (≈ 9.07 µM). It also gave an MIC (E. faecium T62764 (VRE); T62764 (VRE)) of 1 µg/mL (≈ 0.567 µM), an MIC (P. aeruginosa 9 (MDR); 9 (MDR)) of 64 µg/mL (≈ 36.3 µM) and an MIC ([5]; H1027 (MDR)) of 2 µg/mL (≈ 1.13 µM). It also gave an MIC (P. aeruginosa 198 (MDR); 198 (MDR)) of 8 µg/mL (≈ 4.54 µM), an MIC ([6]; 218R Class C β-lactamase) of 8 µg/mL (≈ 4.54 µM) and an MIC [7] of 16 µg/mL (≈ 9.07 µM). For the same compound, the “HD10 (hemolytic activity)” value (erythrocytes) was 87 and the “HD50 (hemolytic activity)” value (erythrocytes) was greater than 200.

With `C[C@@H](O)[C@H]1C(=O)N2C(C(=O)O)=C(SCCN=CN)C[C@H]12` [Imipenem, reference compound] the MIC ([1]; Pseudomonas aeruginosa) was 1 µg/mL (≈ 3.34 µM), the MIC (S. aureus C623 (MRSA); Staphylococcus aureus, MRSA) was 0.1 µg/mL (≈ 0.334 µM) and the MIC ([2]; Pseudomonas aeruginosa) was 2 µg/mL (≈ 6.68 µM). It also gave an MIC (P. maltophilia ATCC13637; Stenotrophomonas maltophilia) of 128 µg/mL (≈ 428 µM), an MIC ([3]; Klebsiella pneumoniae) of 0.1 µg/mL (≈ 0.334 µM) and an MIC (E. coli 63103 (ESBL); Escherichia coli) of 0.1 µg/mL (≈ 0.334 µM). The MIC (E. faecalis ATCC29212; Enterococcus faecalis) was 0.5 µg/mL (≈ 1.67 µM), the MIC (E. coli 64771 (ESBL); Escherichia coli) was 0.1 µg/mL (≈ 0.334 µM) and the MIC (E. faecium mic80 (VRE); Enterococcus faecium, VRE) was 128 µg/mL (≈ 428 µM). It also gave an MIC (E. faecalis W61950 (VRE); Enterococcus faecalis, VRE) of 2 µg/mL (≈ 6.68 µM), an MIC (E. faecalis F43559 (VRE); Enterococcus faecalis, VRE) of 2 µg/mL (≈ 6.68 µM) and an MIC (S. aureus ATCC25923; Staphylococcus aureus) of 0.1 µg/mL (≈ 0.334 µM). The MIC (P. aeruginosa 213 (MDR); Pseudomonas aeruginosa) was 128 µg/mL (≈ 428 µM), the MIC ([4]; Klebsiella pneumoniae) was 0.1 µg/mL (≈ 0.334 µM) and the MIC (E. faecium T62764 (VRE); Enterococcus faecium, VRE) was greater than 128 µg/mL. For the same compound, the MIC (P. aeruginosa 9 (MDR); Pseudomonas aeruginosa) was 128 µg/mL (≈ 428 µM), the MIC ([5]; Pseudomonas aeruginosa) was 8 µg/mL (≈ 26.7 µM) and the MIC (P. aeruginosa 198 (MDR); Pseudomonas aeruginosa) was 32 µg/mL (≈ 107 µM). It also gave an MIC ([6]; Enterobacter cloacae) of 0.1 µg/mL (≈ 0.334 µM).
